Measured values reported in paper PMC9732823, “Discovery of Dual Aβ/Tau Inhibitors and Evaluation of Their Therapeutic Effect on a Drosophila Model of Alzheimer’s Disease” (ACS Chemical Neuroscience, 2022).

Assays:
[1] = PAMPA-BBB assay
Description: Thus, to reduce attrition in the development process, the evaluation of BBB penetration at a very early drug discovery stage is of crucial importance. In light of this, the ability of the previously selected compounds to cross the BBB was predicted by a parallel artificial membrane permeability assay (PAMPA)-BBB,[41] a high-throughput technique widely used as an indicator of a molecule’s passive diffusion through the BBB. Six commercially available drugs were used to validate the assay.
PAMPA (the parallel artificial membrane permeability assay) is a high-throughput screening tool applicable for the prediction of the passive transport of potential drugs across the BBB.[41] In this study, it has been used as a non-cell-based in vitro assay carried out in a coated 96-well membrane filter. The filter membrane of the donor plate was coated with PBL (Polar Brain Lipid, Avanti) in dodecane (4 μL of 20 mg/mL PBL in dodecane) and the acceptor well was filled with 300 μL of phosphate buffer saline, (PBS pH 7.4; VA). The tested compounds were dissolved first in DMSO and then diluted with PBS pH 7.4 to reach the final concentrations of 50–500 μM in the donor well. […] Then, 300 μL of the donor solution (VD) was added to the donor wells and the donor filter plate was carefully put on the acceptor plate so that the coated membrane was “in touch” with both donor solution and acceptor buffer. In principle, the test compound diffuses from the donor well through the polar brain lipid membrane (area = 0.28 cm^2) to the acceptor well. The concentrations of the tested compound in both donor and the acceptor wells were assessed after 3, 4, 5, and 6 h of incubation in quadruplicate using a UV plate reader, Synergy HT (Biotek) at the maximum absorption wavelength of each compound (n=3). In addition to that, solution of the theoretical compound concentration, simulating the equilibrium state established if the membrane were ideally permeable, was prepared and assessed as well. The concentrations of the compounds in the donor and acceptor wells and the equilibrium concentration were calculated from the standard curve and expressed as the permeability (Pe) according to the equation[41] [drawing 1] where [drawing 2]

[2] = biological target: T1, preaggregated Aβ42 (Homo sapiens, UniProt P05067); assay: Optical properties of 23 in the presence of aggregated Aβ42 (fluorescence emission spectra); format: binding; conditions: 23 0.375 μM, Aβ42 0.75 μM, Gly-NaOH buffer 50 mM pH 8.5, λexc = 374 nm
T1 construct: (HFIP)-pretreated Aβ42 samples (Bachem AG, Switzerland); purchased Bachem AG, Switzerland
Description: The interaction of a fluorescent compound with three-dimensionally organized Aβ42 fibrils may lead to a change in its fluorescent properties as a consequence of either a reduction of flexibility due to multiple-interaction points and/or of a change in compound–solvent interactions because of the insertion of the compound within fibril helices. […] This assay setup allows the use of a slightly higher amount of DMSO, which is sufficient to grant compound solubility, because addition of the tested compound to Aβ42 samples is performed when fibrillization has already occurred.
Thus, we recorded the emission spectra of compound 23 in the absence and presence of preaggregated Aβ42.
As reported in a previously published protocol,[42] 1,1,1,3,3,3,-hexafluoro-2-propanol (HFIP)-pretreated Aβ42 samples (Bachem AG, Switzerland) were solubilized with a CH3CN/0.3 mM Na2CO3/250 mM NaOH (48.4:48.4:3.2) mixture to obtain a 500 μM solution. […]
A 1.5 mM stock solution of 23 in methanol was prepared and diluted in 50 mM glycine–NaOH buffer (pH 8.5) to a final concentration of 0.375 μM. Excitation and emission fluorescence spectra in the absence and in the presence of preaggregated Aβ42 (0.75 μM) were recorded using the following instrument setup: λexc = 374 nm, emission range = 400–600 nm; λem = 473 nm; excitation range = 250–460 nm; bandwidth (Ex) = 5 nm; bandwidth (Em) = 5 nm; scanning speed = […].

[3] = test system: Arctic Aβ42 Drosophila flies; assay: Climbing assay in Arctic Aβ42 Drosophila flies; conditions: 20 μM in fly food
Description: Thus, we performed behavioral tests to assess the climbing abilities of Aβ42Drosophila flies with and without treatment with 22 (20 μM), 23 (20 μM), and doxycycline (50 μM), compared to control flies.
The transactivating protein GAL4 is placed under the control of a specific promoter, with its own spatial and temporal patterns, in this case, Elav, whereas the upstream activation sequence (UAS) localized upstream, the locus controlled by the UAS-Gal4; in our study, UAS expresses construct for the E22G variant of Aβ42 (Arctic Aβ42) (AlzArc2).[56],[64] Around 150 flies (half female/male) for each compound tested were collected and divided into groups of 25 flies. At the top of the media, 25 μL of doxycycline (50 μM), 22 (20 μM), or 23 (20 μM) were added fresh anytime the flies were flipped.
Briefly, males and females 25 per vial were kept at 25 °C. The climbing test was performed on days 7, 14, and 21 after birth. […] The protocol was repeated 10 times at 5-min intervals.

T1 sequence (P05067 672-713 limits assumed): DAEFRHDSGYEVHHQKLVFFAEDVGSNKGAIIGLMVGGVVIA

## CN(C)CCN1C(=O)S/C(=C\c2ccc3c(c2)C(C)(C)c2cc(/C=C4\SC(=O)N(CCN(C)C)C4=O)ccc2-3)C1=O [Compound 23, (5Z,5′Z)-5,5′-((9,9-Dimethyl-9H-fluorene-2,7-diyl)bis(methanylylidene))bis(3-(2-(dimethylamino)ethyl)thiazolidine-2,4-dione)]
[1]; PAMPA, pH 7.4
  Papp: 18.9 ± 5.39 ×10⁻⁶ cm/s
[1]; PAMPA-BBB
  BBB permeability prediction: predicted to passively diffuse across the BBB
[1]; PAMPA-BBB penetration estimation
  CNS (+/-): CNS + (CNS + (high BBB permeation predicted): Pe (×10-6 cm s-1) > 4.0)
[2]
  change of fluorescence emission upon binding to preaggregated Aβ42: strong hyperchromic effect upon binding
[3]; day 21
  climbing abilities of Aβ42 Drosophila flies on day 21: no difference between the treated and untreated flies
[3]; days 7, 14, 21 post-eclosion
  climbing abilities of Aβ42 Drosophila flies: partially recovered phenotype that lasted until day 14
